Data taken from US20210322375A1, “COMBINATION DRUG FORMULATIONS FOR TREATING PATIENTS WITH CARDIOVASCULAR DISEASE AND ASSOCIATED CONDITIONS” (Esperion Therapeutics, Inc., priority 2018, published 2021).

Legend:
[1] = system: hypercholesterolemic patients; experiment: Phase 2b randomized double-blind trial: percent change from baseline to week 12 in lipids and CRP; type: in vivo, human
Method: Brief Description of Clinical Study and Results.
Study Objectives. The primary objective was to assess the LDL-C-lowering effect of ETC-1002 monotherapy (120 mg or 180 mg daily) versus EZE monotherapy in hypercholesterolemic patients with or without statin intolerance. Secondary objectives were to characterize the dose response of ETC-1002, evaluate the impact of treatment on other lipid and cardiometabolic biomarkers, compare the LDL-C-lowering effect of ETC-1002 plus EZE combination therapy with EZE monotherapy, and characterize the safety and tolerability of the treatment regimens, including muscle-related adverse events (AEs).
Overall Study Design and Plan. […] 16, 2013 to Aug.
LDL-C was calculated using the Friedewald equation.
Efficacy Endpoints. The primary endpoint was the percent change from baseline to week 12 in calculated LDL-C in patients treated with ETC-1002 monotherapy versus those treated with EZE alone. Secondary endpoints included the dose-response relationship between ETC-1002 and the percent change in LDL-C from baseline to week 12, the percent change in LDL-C from baseline to week 12 in patients treated with ETC-1002 plus EZE versus those treated with EZE alone, and the percent change from baseline to week 12 for all treatment groups in LDL particle number, apolipoprotein B, total cholesterol, non-high-density lipoprotein cholesterol (non-HDL-C), HDL-C, HDL particle number, apolipoprotein A-I, triglycerides, very-low-density lipoprotein (VLDL) particle number, and high-sensitivity C-reactive protein (CRP). Lipoprotein particle number was measured using nuclear magnetic resonance […].
Statistical Plan and Analyses. The study was designed to include 322 patients: 92 patients in each monotherapy group and 23 patients in each combination therapy group. Sample size calculations were performed using nQuery Advisor® version 7.0 (Statistical Solutions, Cork, Ireland). The sample size of 92 patients per monotherapy group was expected to provide 90% power to detect a difference of 10% in the absolute percent change from baseline to week 12 in LDL-C between either ETC-1002 treatment group and the EZE monotherapy group. This calculation was based on a 2-sided t test at the 5% level of significance and assumed a common standard deviation of 15% in the statin-tolerant patients and 22% in the statin-intolerant patients with a dropout rate of 15%.
An analysis of covariance was used to compare each ETC-1002 treatment group with EZE monotherapy for each of the efficacy endpoints. The primary model included the effects of treatment and statin intolerance and the baseline value as a covariate. Baseline was defined as the mean of values from weeks −1 and 0 for LDL-C, non-HDL-C, total cholesterol, HDL-C, and triglycerides. For all other lipid and biomarker measures, baseline was defined as the last value before the first dose of study drug. Missing values at week 12 were imputed using the last-observation-carried-forward procedure. When LDL-C could not be calculated (i.e., triglycerides >400 mg/dL), beta-quantification measurements were used to determine LDL-C values. Least-squares (LS) means and standard errors were obtained for each treatment group; differences in LS means and p-values were obtained for the treatment comparisons. Graphical methods (e.g., normal probability plot and histogram of residuals, plot of residuals vs. predicted values) or analytical methods (e.g., Shapiro-Wilk test), or both, were used to assess the model assumptions. Because of departures from normality observed in the parameters of triglycerides, CRP, and VLDL particle number, nonparametric analyses were performed for these measures, with p-values obtained from the Wilcoxon rank-sum test and median values presented.
Percent changes from baseline in LDL-C also were summarized by statin-tolerance subgroup. […]

[2] = system: hypercholesterolemic patients; experiment: Phase 2b trial: treatment-emergent adverse events and laboratory safety
Source text: Study Population. Medically stable, hypercholesterolemic men and women aged 18 through 80 years with a body mass index between 18 to 45 kg/m^2 were included in the study. […] The study population included both statin-tolerant and statin-intolerant participants. Statin intolerance was defined as the inability to tolerate ≥2 statins because of muscle-related symptoms such as pain, weakness, or cramping that began or increased during statin therapy and resolved on statin discontinuation. At least 1 statin must have been administered at the lowest approved daily dose, defined as rosuvastatin 5 mg, atorvastatin 10 mg, simvastatin 10 mg, lovastatin 20 mg, pravastatin 40 mg, fluvastatin 40 mg, or pitavastatin 2 mg. Treatment with less than the lowest approved daily dose of a statin (i.e., skipping days) was considered equivalent to not tolerating 1 statin at the lowest approved daily dose.
Overall Study Design and Plan. […] Patients underwent a 5-week washout of all lipid-regulating drugs and dietary supplements and abstained from these drugs and supplements throughout the study. Patients also underwent a 5-week patient-only-blinded placebo run-in during the screening period (week −5 to week 0). This single-blind placebo run-in period was used to eliminate patients with muscle-related AEs during placebo treatment. Patients reporting new or worsening, unexplained muscle-related AEs during this run-in period were excluded from the study.
Patients were stratified (1:1) by history of statin intolerance and randomized at week 0 in a 4:4:4:1:1 ratio to once-daily treatment with capsules containing ETC-1002 120 mg, ETC-1002 180 mg, EZE, ETC-1002 120 mg plus EZE, or ETC-1002 180 mg plus EZE. […] A contract laboratory (Medpace Inc., Cincinnati, Ohio), performed all clinical laboratory tests. LDL-C was calculated using the Friedewald equation. Phlebotomy was performed after a minimum 12-hour fast (water was allowed) and only if the patient took their dose of study drug the previous day.
Safety Endpoints. The safety of ETC-1002 was assessed using treatment-emergent AEs; hematology, serum chemistry, and urinalysis laboratory values; physical examination findings; vital sign measurements; electrocardiogram (ECG) readings; weight; and ankle and waist circumference measurements. AEs were coded using the Medical Dictionary for Regulatory Activities version 16.0 and evaluated by the investigator for severity and relation to study drug. Muscle-related AEs were defined as those from the system organ class of musculoskeletal and connective tissue disorders, except for those that were not obviously muscle related. Terms included in the muscle-related AE analysis were selected from this system organ class after database lock and before unblinding.
Safety analyses were performed on the safety population, which included randomized patients who received at least 1 dose of study drug. Baseline patient characteristics were summarized for the safety population by treatment group and statin-tolerance subgroup.
Muscle-related AEs also were summarized by statin-tolerance subgroup.

[3] = EZE 10 mg daily, mITT n = 98, LS mean ± SE
[4] = EZE 10 mg daily, mITT n = 98, median (interquartile range)
[5] = EZE 10 mg daily, safety population n = 99
[6] = statin-intolerant patients, EZE 10 mg, n = 51
[7] = statin-tolerant patients, EZE 10 mg, n = 48

With O=C1[C@H](CC[C@H](O)c2ccc(F)cc2)[C@@H](c2ccc(O)cc2)N1c1ccc(F)cc1 [EZE, (3R,4S)-1-(4-fluorophenyl)-3-[(3S)-3-(4-fluorophenyl)-3-hydroxypropyl]-4-(4-hydroxyphenyl)azetidin-2-one, reference compound] the “Apolipoprotein A-I, percent change from baseline to week 12” value [1, 3] was 2.0 ± 1.1%, the “Apolipoprotein B, percent change from baseline to week 12” value [1, 3] was −15.2 ± 1.2% and the “HDL particle number, percent change from baseline to week 12” value [1, 3] was 6.7 ± 1.3%. The “HDL-C, percent change from baseline to week 12” value [1, 3] was 5.0 ± 1.4%, the “LDL particle number, percent change from baseline to week 12” value [1, 3] was −12.7 ± 1.7% and the “LDL-C, percent change from baseline to week 12” value [1, 3] was −21.2 ± 1.3%. The “Non-HDL-C, percent change from baseline to week 12” value [1, 3] was −18.7 ± 1.2%, the “Total cholesterol, percent change from baseline to week 12” value [1, 3] was −14.3 ± 0.9% and the “CRP, percent change from baseline to week 12” value [1, 4] was −10.5 (59.0) %. For the same compound, the “Triglycerides, percent change from baseline to week 12” value [1, 4] was −7.0 (34.9) %, the “VLDL particle number, percent change from baseline to week 12” value [1, 4] was −12.6 (63.4) % and the CRP reduction ([1]; EZE alone) was 10%. The HDL-C increase ([1]; EZE alone, week 12) was 5%, the “ALT or AST, or both, increased >3 times the upper limit of normal at any measurement” value ([2]; EZE) was 1 patient and the “Serious AE reported (event)” value ([2]; EZE) was “transient ischemic attack”. For the same compound, the “ALT increased, patients” value [2, 5] was 1 (1%) n (%), the “AST increased, patients” value [2, 5] was 0 n (%) and the “Any AE(s), patients” value [2, 5] was 53 (54%) n (%). For the same compound, the “Arthralgia, patients” value [2, 5] was 4 (4%) n (%), the “Back pain, patients” value [2, 5] was 8 (8%) n (%) and the “Blood CK increased, patients” value [2, 5] was 1 (1%) n (%). For the same compound, the “Constipation, patients” value [2, 5] was 1 (1%) n (%), the “Discontinuation due to AE(s), patients” value [2, 5] was 8 (8%) n (%) and the “Headache, patients” value [2, 5] was 1 (1%) n (%). For the same compound, the “Myalgia, patients” value [2, 5] was 6 (6%) n (%), the “Nasopharyngitis, patients” value [2, 5] was 4 (4%) n (%) and the “Serious AE(s), patients” value [2, 5] was 1 (1%) n (%). The “Study drug-related AE(s), patients” value [2, 5] was 19 (19%) n (%), the “Upper respiratory tract infection, patients” value [2, 5] was 1 (1%) n (%) and the “Urinary tract infection, patients” value [2, 5] was 6 (6%) n (%). The “Myalgia, patients, entire study population” value ([2]; EZE alone) was 6%, the “Any muscle-related AE, patients” value [2, 6] was 9 (18%) n (%) and the “Muscle spasms, patients” value [2, 6] was 1 (2%) n (%). For the same compound, the “Muscle-related AE leading to discontinuation, patients” value [2, 6] was 5 (10%) n (%), the “Muscular weakness, patients” value [2, 6] was 1 (2%) n (%) and the “Musculoskeletal chest pain, patients” value [2, 6] was 0 n (%). For the same compound, the “Musculoskeletal stiffness, patients” value [2, 6] was 1 (2%) n (%), the “Myalgia, patients” value [2, 6] was 6 (12%) n (%) and the “Pain in extremity, patients” value [2, 6] was 3 (6%) n (%). For the same compound, the “Sensation of heaviness, patients” value [2, 6] was 1 (2%) n (%), the “Any muscle-related AE, patients” value [2, 7] was 3 (6%) n (%) and the “Muscle spasms, patients” value [2, 7] was 2 (4%) n (%). The “Muscle-related AE leading to discontinuation, patients” value [2, 7] was 1 (2%) n (%), the “Musculoskeletal pain, patients” value [2, 7] was 1 (2%) n (%) and the “Myalgia, patients” value [2, 7] was 0 n (%).
